One experiment relates to migraine pain. The experiment in a line: Utility tests for migraine analgesic activity (mouse writhing, acetic acid-induced writhing, protein extravasation and related tests). The class given is in vivo, mice; rats; guinea pigs; rabbits. The following applies: summary statement for the utility tests, no values given.
The test system of another experiment is 5-HT1C receptor. The experiment in a line: pharmacological studies, 5-HT1C receptor activity.
In experiment [1] the test system is muscarinic cholinergic receptor. The experiment in a line: pharmacological studies, muscarinic cholinergic receptor activity.

Regarding `Cc1cc2c(s1)Nc1ccccc1N=C2N1CCN(C)CC1` [olanzapine, 2-methyl-4-(4-methyl-1-piperazinyl)-10H-thieno[2,3-b][1,5]benzodiazepine], in the experiment with migraine pain, the “migraine pain analgesic effect” value was “can provide a significant migraine pain analgesic effect”. Also, the “activity at the 5-HT1C receptor” value in the experiment on 5-HT1C receptor is “active”. For the same compound, the “muscarinic cholinergic receptor activity” value in experiment [1] is recorded as “has muscarinic cholinergic receptor activity”.

Source of the values: patent US5929070A (Eli Lilly and Company, priority 1997, dated 1999).
